Measured values: ChEMBL document CHEMBL1921771, “Structure-activity relationships of ganoderma acids from Ganoderma lucidum as aldose reductase inhibitors” (Bioorg Med Chem Lett, 2011)

These compounds were tested against Aldo-keto reductase family 1 member B1 (Homo sapiens, UniProt P15121) (assay: Inhibition of recombinant human aldose reductase using dl-glyceraldehyde as substrate after 10 mins by spectrophotometry).
`COC(=O)C(C)CC(=O)C[C@@H](C)[C@H]1CC(=O)[C@@]2(C)C3=C([C@@H](O)C[C@]12C)[C@@]1(C)CCC(=O)C(C)(C)[C@@H]1C[C@@H]3O` (some centres not stated) was tested, and the IC50 was greater than 189 µM.
For `COC(=O)[C@H](C)CC(=O)C[C@@H](C)[C@H]1C[C@H](O)[C@@]2(C)C3=C(C(=O)C[C@]12C)[C@@]1(C)CC[C@H](O)C(C)(C)[C@@H]1C[C@@H]3O`, the IC50 was greater than 184 µM.
`C/C(=C\C(=O)CC(C)C(=O)O)[C@H]1C[C@H](O)[C@@]2(C)C3=C(C(=O)C[C@]12C)[C@@]1(C)CCC(=O)C(C)(C)[C@@H]1C[C@@H]3O` (some centres not stated) [GANODERENIC ACID A] was tested, and the IC50 was 119 µM.
`C[C@H](CC(=O)C[C@@H](C)[C@H]1C[C@H](O)[C@@]2(C)C3=C(C(=O)C[C@]12C)[C@@]1(C)CCC(=O)C(C)(C)[C@@H]1C[C@@H]3O)C(=O)O` [GANODERIC ACID A] showed an IC50 greater than 193 µM.
`CC(CC(=O)C[C@@H](C)[C@H]1CC(=O)[C@@]2(C)C3=C(C(=O)C[C@]12C)[C@@]1(C)CC[C@H](O)C(C)(C)[C@@H]1C[C@@H]3O)C(=O)O` (some centres not stated) [GANODERIC ACID B] showed an IC50 greater than 193 µM.
`C[C@H](CC(=O)C[C@@H](C)[C@H]1CC(=O)[C@@]2(C)C3=C(C(=O)C[C@]12C)[C@@]1(C)CCC(=O)C(C)(C)[C@@H]1C[C@@H]3O)C(=O)O` [GANODERIC ACID C1] was tested, and the IC50 was greater than 194 µM.
In the case of `C[C@H](CC(=O)C[C@@H](C)[C@H]1C[C@H](O)[C@@]2(C)C3=C(C(=O)C[C@]12C)[C@@]1(C)CC[C@H](O)C(C)(C)[C@@H]1C[C@@H]3O)C(=O)O` [GANODERIC ACID C2], the IC50 is reported as 43.8 µM.
Work on `CC(CC(=O)C[C@@H](C)[C@H]1CC(=O)[C@@]2(C)C3=C(C(=O)[C@@H](O)[C@]12C)[C@@]1(C)CC[C@H](O)C(C)(C)[C@@H]1CC3=O)C(=O)O` (some centres not stated) [GANODERIC ACID C6] yielded an IC50 greater than 193 µM.
`CC(CC(=O)C[C@@H](C)[C@H]1CC(=O)[C@@]2(C)C3=C([C@@H](O)C[C@]12C)[C@@]1(C)CCC(=O)C(C)(C)[C@@H]1C[C@@H]3O)C(=O)O` (some centres not stated) [GANODERIC ACID DF] gave an IC50 of 22.8 µM.
Compound `CC(CC(=O)C[C@@H](C)[C@H]1CC(=O)[C@@]2(C)C3=C(C(=O)C[C@]12C)[C@@]1(C)CCC(=O)C(C)(C)[C@@H]1C[C@@H]3O)C(=O)O` (some centres not stated) [GANODERIC ACID D] has an IC50 greater than 195 µM.
`CC(CC(=O)C[C@@H](C)[C@H]1CC(=O)[C@@]2(C)C3=C(C(=O)[C@@H](O)[C@]12C)[C@@]1(C)CC[C@H](O)C(C)(C)[C@@H]1C[C@@H]3O)C(=O)O` (some centres not stated) [GANODERIC ACID G] gave an IC50 greater than 188 µM.
For `CC(=O)O[C@@H]1C(=O)C2=C(C(=O)C[C@H]3C(C)(C)[C@@H](O)CC[C@]23C)[C@]2(C)C(=O)C[C@H]([C@H](C)CC(=O)CC(C)C(=O)O)[C@@]12C` (some centres not stated) [GANODERIC ACID H], the IC50 was greater than 175 µM.
`CC(CC(=O)C[C@@H](C)[C@H]1C[C@H](O)[C@@]2(C)C3=C(C(=O)C[C@]12C)[C@@]1(C)CCC(=O)C(C)(C)[C@@H]1CC3=O)C(=O)O` (some centres not stated) [GANODERIC ACID J] gave an IC50 greater than 194 µM.
With `CC(=O)O[C@@H]1C(=O)C2=C([C@@H](O)C[C@H]3C(C)(C)[C@@H](O)CC[C@]23C)[C@]2(C)C(=O)C[C@H]([C@H](C)CC(=O)CC(C)C(=O)O)[C@@]12C` (some centres not stated) [GANODERIC ACID K] the IC50 was greater than 174 µM.
For `CC(CC(=O)C[C@@H](C)[C@H]1C[C@H](O)[C@@]2(C)C3=C(C(=O)C[C@]12C)[C@@]1(C)CC[C@H](O)C(C)(C)[C@@H]1CC3)C(=O)O` (some centres not stated) [GANOLUCIDIC ACID B], the IC50 was greater than 199 µM.
`COC(=O)C(C)CC(=O)C[C@@H](C)[C@H]1C[C@H](O)[C@@]2(C)C3=C(C(=O)C[C@]12C)[C@@]1(C)CCC(=O)C(C)(C)[C@@H]1C[C@@H]3O` (some centres not stated) [METHYL GANODERATE A] gave an IC50 greater than 189 µM.
For `COC(=O)C(C)CC(=O)/C=C(\C)[C@H]1C[C@H](O)[C@@]2(C)C3=C(C(=O)C[C@]12C)[C@@]1(C)CCC(=O)C(C)(C)[C@@H]1C[C@@H]3O` (some centres not stated) [METHYL GANODERENATE A], the IC50 was greater than 184 µM.
